From patent US10183082B2, “PET probes of radiofluorinated carboximidamides for IDO-targeted imaging” (H. LEE MOFFITT CANCER CENTER AND RESEARCH INSTITUTE, INC., priority 2014, dated 2019)

Key:
[1] = biological target: IDO (Homo sapiens, UniProt P14902); test: Inhibition of IFN-γ induced IDO activity in Hela cells; type: cell-based; settings: Hela cell lines (FIGS. 7A, 7B)
[2] = system: MDA-MB-231 cells; test: alamarBlue cell proliferation (cytotoxicity) assay, MDA-MB-231; type: cell-based; settings: 100 nM, 2 days incubation
Method: (§1) FIGS. 6A-6C. Cell viability study of HuMEC cells, MCA-MB-231 cells, and Hela cells, respectively, incubated with 100 nM of IDO inhibitors. After 2 days of incubation, alamarBlue cell viability reagent was added to cells and the fluorescence intensity (arbitrary fluorescent units) was measured after 3 hours incubation (n=4). Cytotoxicity of four IDO inhibitors toward different cell lines was evaluated with a cell proliferation assay using alamarBlue cell viability reagent. Hela cells were cultured in EMEM medium (ATCC 30-2003) containing 10% FBS, MDA-MB-231 and MCF-7 were cultured in RPMI-1640 Medium containing 10% FBS, while HuMEC cells were cultured in HuMEC medium (ATCC 12752-010). The cell proliferation assay included the following: harvesting of the cells by trypsinization and adding culture media to adjust to 10000 cell/mL; add 0.2 mL of cell suspension to each well and incubated at 37° C. in 5% CO2 atmosphere for 2 days; adding 1 μL of inhibitor solution (0.1 mM in DMSO) into growth media (1 mL) to get growth media w/inhibitor; aspirating spent growth medium from the wells and adding 200 μL of growth media w/ inhibitors and incubating at 37° C. in 5% CO2 atmosphere for 2 days; adding 20 μL of the alamarBlue (Invitrogen) into each well; incubating for addition 3 hours at 37° C. in 5% CO2 atmosphere; and reading the fluorescence intensity of each well with a plate reader (excitation, 544 nm; Emission 595 nm). The fluorescent signal is linear to the number of living cells.

[3] = system: Hela cells; test: alamarBlue cell proliferation (cytotoxicity) assay, Hela; type: cell-based; settings: 100 nM, 2 days incubation
Method: as §1

[4] = system: MCF-7 cells; test: alamarBlue cell proliferation (cytotoxicity) assay, MCF-7; type: cell-based; settings: 100 nM, 2 days incubation
Method: as §1

[5] = system: HuMEC cells; test: alamarBlue cell proliferation (cytotoxicity) assay, HuMEC; type: cell-based; settings: 100 nM, 2 days incubation
Method: as §1

[6] = via oral administration; cited from earlier work
[7] = biological target: T1, tumor IDO expression (Mus musculus, UniProt P28776); test: microPET/CT imaging of CLL mouse model versus wild-type mouse; type: in vivo; settings: imaged 1 hour after i.p. injection of the probe; CLL tumor mice vs wild-type mice
T1 construct: from tissue; host or cells: living CLL tumor mice (whole-animal microPET/CT)
Method: Mice were imaged 1 hour after i.p. injection of the probe.

Chain of IDO (P14902 whole entry): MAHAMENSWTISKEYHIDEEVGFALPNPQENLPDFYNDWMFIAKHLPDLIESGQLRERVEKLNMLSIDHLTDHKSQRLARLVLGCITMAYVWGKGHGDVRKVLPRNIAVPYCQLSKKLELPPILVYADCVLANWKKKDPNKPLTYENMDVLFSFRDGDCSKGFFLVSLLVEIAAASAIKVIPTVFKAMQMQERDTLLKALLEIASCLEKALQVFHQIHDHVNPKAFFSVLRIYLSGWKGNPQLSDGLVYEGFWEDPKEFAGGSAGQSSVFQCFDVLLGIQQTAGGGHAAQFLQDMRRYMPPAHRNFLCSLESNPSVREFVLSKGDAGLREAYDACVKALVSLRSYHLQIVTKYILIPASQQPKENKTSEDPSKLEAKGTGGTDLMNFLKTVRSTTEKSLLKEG
T1 sequence (P28776 whole entry): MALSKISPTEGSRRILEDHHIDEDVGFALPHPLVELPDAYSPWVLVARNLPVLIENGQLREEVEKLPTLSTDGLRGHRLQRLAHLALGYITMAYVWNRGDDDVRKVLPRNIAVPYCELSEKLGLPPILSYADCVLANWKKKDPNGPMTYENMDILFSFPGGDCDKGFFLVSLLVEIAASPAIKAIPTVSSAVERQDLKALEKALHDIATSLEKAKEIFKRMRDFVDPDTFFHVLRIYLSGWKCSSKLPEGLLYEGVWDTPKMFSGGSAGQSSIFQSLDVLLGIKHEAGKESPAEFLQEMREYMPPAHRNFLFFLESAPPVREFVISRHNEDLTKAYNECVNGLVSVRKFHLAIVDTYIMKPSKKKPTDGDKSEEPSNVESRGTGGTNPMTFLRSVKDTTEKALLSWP

Compound | Inhibition of IDO activity [1] | Cytotoxicity [2] | Cytotoxicity [3] | Cytotoxicity [4] | Cytotoxicity [5] | t½ (clearance rate) [6] | microPET/CT detection of tumor IDO expression [7]
ON=C(Nc1ccc(F)c(Cl)c1)c1nonc1NCCF [IDO4-9] | inhibited | no cytotoxicity | no cytotoxicity | no cytotoxicity | no cytotoxicity |  | 
Nc1nonc1C(=NO)Nc1ccc(F)c(Cl)c1 [IDO5L, 4-Amino-N-(3-chloro-4-fluorophenyl)-N′-hydroxy-1,2,5-oxadiazole-3-carboximidamide] | inhibited | no cytotoxicity | no cytotoxicity | no cytotoxicity | no cytotoxicity | < 30 min | 
O=C(Cc1ccc(F)cc1)Nc1nonc1/C(=N/O)Nc1ccc(F)c(Cl)c1 [IDO5] | inhibited |  |  |  |  |  | 
O=C(Nc1nonc1/C(=N/O)Nc1ccc(F)c(Cl)c1)c1ccc(F)cc1 [IDO6] | inhibited | no cytotoxicity | no cytotoxicity | no cytotoxicity | no cytotoxicity |  | 
O/N=C(\Nc1ccc(F)c(Cl)c1)c1nonc1NCCO/N=C\c1ccc(F)cc1 [IDO7] | inhibited |  |  |  |  |  | 
Nc1nonc1/C(=N/O)Nc1ccc([18F])c(Cl)c1 [^18F-IDO5L, [18F] 4-amino-N-(3-chloro-4-fluorophenyl)-N′-hydroxy-1,2,5-oxadiazole-3-carboximidamide] |  |  |  |  |  |  | distinguishes IDO-positive chronic lymphocytic leukemia (CLL) mouse model and wild-type mouse in vivo
